Four compounds from PMC10382406, “Head-to-head comparison of different classes of FAP radioligands designed to increase tumor residence time: monomer, dimer, albumin binders, and small molecules vs peptides” (European Journal of Nuclear Medicine and Molecular Imaging, 2023) can be followed below.

This assay deals with T1, hFAP (Homo sapiens, UniProt Q12884).
T1 sequence (Q12884 1-760): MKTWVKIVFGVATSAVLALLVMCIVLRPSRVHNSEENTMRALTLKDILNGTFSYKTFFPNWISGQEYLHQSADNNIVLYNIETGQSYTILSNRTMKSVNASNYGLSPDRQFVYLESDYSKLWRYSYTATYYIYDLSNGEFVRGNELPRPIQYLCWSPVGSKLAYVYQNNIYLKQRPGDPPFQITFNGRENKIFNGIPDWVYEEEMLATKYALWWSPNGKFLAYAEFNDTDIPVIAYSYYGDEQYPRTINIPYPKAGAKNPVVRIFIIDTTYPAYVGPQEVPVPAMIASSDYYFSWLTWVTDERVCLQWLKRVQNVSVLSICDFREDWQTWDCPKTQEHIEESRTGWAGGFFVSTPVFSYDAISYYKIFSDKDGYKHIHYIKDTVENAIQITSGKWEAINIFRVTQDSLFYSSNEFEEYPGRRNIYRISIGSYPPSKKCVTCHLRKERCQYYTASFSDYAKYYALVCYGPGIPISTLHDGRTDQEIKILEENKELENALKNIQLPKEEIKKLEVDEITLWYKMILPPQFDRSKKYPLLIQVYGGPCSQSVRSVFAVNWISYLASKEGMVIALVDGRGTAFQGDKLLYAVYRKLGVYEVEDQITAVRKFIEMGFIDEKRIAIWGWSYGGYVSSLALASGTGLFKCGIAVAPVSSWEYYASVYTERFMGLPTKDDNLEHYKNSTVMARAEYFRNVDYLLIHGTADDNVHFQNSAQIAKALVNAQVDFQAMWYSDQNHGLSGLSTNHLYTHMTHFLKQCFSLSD
Nature of the assay: In vitro inhibition assay on hFAP (substrate Z-Gly-Pro-AMC). The format is biochemical. Conditions: isolated hFAP 200 pM, Z-Gly-Pro-AMC 20 μM, room temperature. The procedure:
The IC50 of all the ligands against isolated hFAP protein was assessed by an inhibition assay following published protocols (Supplementary Information and Supplementary Fig. 3).
In vitro inhibition assay on hFAP
The enzymatic activity of hFAP on the substrate Z-Gly-Pro-AMC was measured at room temperature on a microtiter plate reader, monitoring the fluorescence at an excitation wavelength of 360 nm and an emission wavelength of 465 nm. The assay was performed by mixing the substrate (20 μM), hFAP (200 pM, constant), and the ligands in assay buffer (50 mM Tris, 1 M NaCl, 1 mg/mL BSA, pH=7.5), with serial dilution of the inhibitors ranging from 250 nM to 2 fM, 1:2 in a total volume of 20 μL.
Experiments were performed in triplicate, and the mean fluorescence values were fitted using GraphPad Prism 9 (equation used: Y = Bottom + (Top − Bottom)/(1 +
((X^HillSlope)/(IC50^HillSlope)))). The IC50 value is defined as the concentration of ligand (inhibitor) required to reduce the enzyme activity by 50% after the addition of the substrate.
The results are presented in the Supplemental Figure 3.
(1 picture or pasted object on this page, not shown here)

In general, IC50 refers to the midpoint of a concentration-inhibition curve. High values mean a need for much substance, low ones inhibition by little substance. On to `CN(CCCN1CCN(C(=O)CN2CCN(CC(=O)O)CCN(CC(=O)O)CCN(CC(=O)O)CC2)CC1)c1ccc2nccc(C(=O)NCC(=O)N3CC(F)(F)C[C@H]3C#N)c2c1` [FAPI-46, reference compound], for which the concentration for half-maximal inhibition (IC50) is 0.247 ± 0.017 nM. With `CN(CCCN1CCN(C(=O)CC(NC(=O)CN2CCN(CC(=O)O)CCN(CC(=O)O)CCN(CC(=O)O)CC2)C(=O)N2CCN(CCCN(C)c3ccc4nccc(C(=O)NCC(=O)N5CC(F)(F)C[C@H]5C#N)c4c3)CC2)CC1)c1ccc2nccc(C(=O)NCC(=O)N3CC(F)(F)C[C@H]3C#N)c2c1` (stereo partly shown) [FAPI-46-F1D] the figure was 0.158 ± 0.0145 nM; with `Cc1cc(-c2ccc(NC(=O)CC(NC(=O)CN3CCN(CC(=O)O)CCN(CC(=O)O)CCN(CC(=O)O)CC3)C(=O)N3CCN(CCCN(C)c4ccc5nccc(C(=O)NCC(=O)N6CC(F)(F)CC6C#N)c5c4)CC3)c(C)c2)ccc1N=Nc1ccc2c(S(=O)(=O)O)cc(S(=O)(=O)O)c(N)c2c1O` (stereo not shown) [FAPI-46-EB], 0.634 ± 0.102 nM. The same measure for `CC(C)Cc1ccc(C(C)C(=O)NCC(NC(=O)CN2CCN(CC(=O)O)CCN(CC(=O)O)CCN(CC(=O)O)CC2)C(=O)N2CCN(CCCN(C)c3ccc4nccc(C(=O)NCC(=O)N5CC(F)(F)C[C@H]5C#N)c4c3)CC2)cc1` (stereo partly shown) [FAPI-46-Ibu]: 0.0394 ± 0.0161 nM.
